Measured values from US20030220524A1, “Sulfur containing compounds” (priority 2000, published 2003).
Read-outs that look alike come from different tables or passages of the source.

Assays:
AML-3 leukemic cell line [1] = test: MTT assay; format: cell-based, human
Method: (§1) All cell lines were assayed as asynchronously growing cells. Leukemic cell lines, OCI-AML-2, OCI-AML-3 (referred to hereafter as AML-2 and AML-3, respectively), NB-4, KK, B1, G2, and W1 were cultured in alpha-minimal essential medium (α-MEM) (Princess Margaret Hospital Media Services) supplemented with 10% fetal bovine serum (FBS) (Sigma, St. Louis, Mo.). Non-transformed, diploid fibroblast lines WI38 and IMR90, were cultured in α-MEM and MEM F-15, respectively supplemented with 10% FBS. Media for IMR90 cells was also supplemented with 1.5 g/L bicarbonate and 1 mM pyruvate. Breast tumour cell lines, MDA-231, SK-BR-3, MCF-7, ZR-751, and melanoma tumour cell lines, WM9, WM983, WM793, 1232, were grown in α-MEM supplemented with 10% fetal bovine serum. Prostate tumour cell lines, DU145 and PC-3, were grown in RPMI 1640 media supplemented with 10% FBS. All cell lines were cultured in the presence of penicillin/streptomycin. Mononucleated cells were isolated from normal bone marrow using Ficoll hypaque and then T-cell depleted. T-cell depletion was performed by incubating the mononucleated bone marrow cells in α-MEM at a concentration of 2×10^7 cells/mL with 10% absor FBS and 10% (v/v) sheep red blood cells for 4 to 16 h. Absor FBS was prepared beforehand by heating FBS at 56° C. for 1 h, incubating with sheep red blood cells at 0.5% (v/v) for 1 h and then filtering the FBS with a […]. The T-cell depleted, mononucleated cells were recovered using Ficoll hypaque and were maintained in α-MEM supplemented with 20% FBS and 10% 5637 ? nditioned media. 5637 conditioned media ? s previously harvested from confluent 5637 cells after a 3 day incubation. Normal bone marrow from bone marrow transplant donor was collected following informed consent according to institutional guidelines.
(§2) Approximately 20 mg of each compound was dissolved in 5 mL of ACS grade acetone (Sigma) using a 5 mL volumetric flask. Stock solutions of the compounds were stored in the dark at −20° C. Compounds were diluted prior to each experiment.
(§3) Adherent cells were seeded at 67×10^3 cells/mL in a 96 well plate (Falcon, Mississauga, Ontario) the day prior to exposure to compound. Suspension cells were seeded at 27×10^4 cells/mL in a 96 well plate the day of exposure to compound. Mononucleated, T-cell depleted normal bone marrow cells were seeded at 67×10^4 cells/mL in a 96 well plate the day of exposure to compound. Compounds and solvent control were added to cells and assayed in triplicate or sextuplet. Following 48 h of incubation at 37° C. with 5% CO2, 40 μL of a 5 mg/mL solution of 3-[4,5-dimethylthiazol-2-yl]-2,5-diphenyltetrazolium bromide (MTT) substrate (Sigma) in Dulbecco's phosphate-buffered saline (D-PBS) was added. After 4 h of incubation at 37° C. with 5% CO2, the resulting violet formazan precipitate was solubilized by the addition of 80 μL of a 0.01 M HCI, 10% sodium dodecyl sulfate (SDS; Sigma) solution overnight at 37° C. with 5% CO2. The plates were then analyzed using the BioRad Benchmark Microplate Reader (BioRad Laboratories, Hercules, Calif.) at 570 nm to determine the optical density of the samples. MTT data was analyzed using Prism 3.0 (GraphPad Software, Inc., San Diego, Calif.) by the Chou-Talalay method. MTT graphs shown are a representative experiment.
(§4) Adherent cells were seeded at 67×10^3 cells/mL in a 96 well plate (Falcon, Mississauga, Ontario) the day prior to exposure to compound. Suspension cells were seeded at 27×10^4 cells/mL in a 96 well plate the day of exposure to compound. Mononucleated, T-cell depleted normal bone marrow cells were seeded at 67×10^4 cells/mL in a 96 well plate the day of exposure to compound. Compounds and solvent control were added to cells and assayed in triplicate or sextuplet. […]

KK leukemic cell line = test: MTT assay; format: cell-based, human; details: 48 h, read-out: MTT50
Method: as §1, §2, §3, §4

[2] = system: WI38 non-transformed diploid fibroblasts; test: MTT assay; format: cell-based, human; details: for IC50: read-out: MTT50; for Viability of non-transformed human WI38 fibroblasts following exposure: in words
Method: as §1, §2, §3, §4

[3] = system: Normal bone marrow (mononucleated, T-cell depleted); test: MTT assay; format: cell-based; details: 48 h, read-out: MTT50
Method: as §1, §2, §3, §4

AML-3 leukemic cell line [4] = test: Fixed propidium iodide staining, flow cytometry; format: cell-based, human; details: 48 h
Method: (§5) Adherent cell lines were plated at 35×10^4 cells/60 cm^2 dish the day before exposure to compound. Suspension cells were seeded at 25×10^4 cells/mL in a 6 well dish (Falcon) the day of exposure to compound. Mononucleated, T-cell depleted normal bone marrow cells were seeded at 50×10^4 cells/mL in a 6 well dish the day of exposure to compound. Cells were exposed to solvent control or approximate MTT50 and MTT30 concentrations of the compound. After 48 h of exposure to the compound, cells were harvested, fixed in 80% ethanol for 1 h on ice and labeled with 50 μg/mL propidium iodide (Sigma). Approximately 10^6 cells were analyzed using a XL-MCL flow cytometer (Coulter Corporation, Miami, Fla.) and a FACScalibar cytometer (Becton Dickinson, San Jose, Calif.). Profiles shown are a representative.
as §5, with “cm2” for “cm^2”, “concentrations.” for “concentrations of the compound.”, “representative. Cell viability counts and Pi staining were performed as previously described (Dimitroulakos, J, Nohynek, D, Backway, K L, Hedley, D W, Yeger, H, Freedman, M H, Minden, M D and Penn, L Z: Increased sensitivity of acute myeloid leukemias to lovastatin-induced apoptosis: A potential therapeutic approach. Blood 93: 1308-18, 1999).” for “representative.”

[5] = Homo sapiens, AML3, 48 h, AML-3, read-out: MTT50
[6] = Homo sapiens, WI-38, 48 h, WI38 (normal), 48 h

IC50 (AML-3 leukemic cell line [1]; AML-3, 48 h, read-out: MTT50) [µM] | IC50 (KK leukemic cell line; KK) [µM] | IC50 (AML-3 leukemic cell line [1]; [5]) [µM] | IC50 (KK leukemic cell line; Homo sapiens, KK) [µM] | SMILES | IC50 ([2]; WI38 (normal), 48 h) [µM] | Viability of non-transformed human WI38 fibroblasts following exposure [2] | IC50 ([3]; Normal bone marrow) [µM] | IC50 [2, 6] [µM] | IC50 ([3]; T-cell, Normal bone marrow) [µM] | further results
> 134 | > 134 |  |  | CSCSCS(C)(=O)=O [B] | > 134 | not affected | > 134 |  |  | % G2/M (Fixed PI) (AML-3 leukemic cell line [4]; dose 107 uM (20 ug/mL)): 13.4%; % pre-G1 (Fixed PI) (AML-3 leukemic cell line [4]; dose 107 uM (20 ug/mL)): 0.3%
> 265 | > 265 |  |  | CS(C)(=O)=O [Compound A, dimethyl sulfone] | > 265 | not affected | > 265 |  |  | % pre-G1 (Fixed PI) (AML-3 leukemic cell line [4]; dose 212 uM (20 ug/mL)): 0.1%
 |  | 22.5 | 23.7 | CCC(=O)OCSSc1ccccc1 [Compound Q, 1-phenyl-1,2-dithiapropyl propionate] |  |  |  | > 100 | > 100 | % G2 increase (Fixed PI) (AML-3 leukemic cell line [4]; dose 20 uM): −5%; % pre-G1 (Fixed PI) (AML-3 leukemic cell line [4]; dose 20 uM): 10%; % G2 increase (Fixed PI) (AML-3 leukemic cell line [4]; dose 40 uM): −9%; % pre-G1 (Fixed PI) (AML-3 leukemic cell line [4]; dose 40 uM): 42%
 |  | 10.1 | 12.8 | c1ccc(SSc2ccccc2)cc1 [D, diphenyl disulphide] |  | decreased |  | 45.3 | 19.1 | % pre-G1 (Fixed PI) (AML-3 leukemic cell line [4]; dose 91.6 uM (20 ug/mL)): 24.1%
 |  | 15.4 | 17.5 | CS(=O)(=O)CSSc1ccccc1 [E, 5-phenyl-2,4,5-trithiapentane 2,2-dioxide] |  | decreased |  | 45.2 | 21.9 | % pre-G1 (Fixed PI) (AML-3 leukemic cell line [4]; dose 85.3 uM (20 ug/mL)): 24.5%
44 | 93.4 |  |  | CSSCCS(C)(=O)=O [F, 2,3,6-trithiaheptane 6,6,-dioxide] | > 100 | not affected | 116 |  |  | % G2/M (Fixed PI) (AML-3 leukemic cell line [4]; dose 45.8 uM (10 ug/mL)): 34.1%; % pre-G1 (Fixed PI) (AML-3 leukemic cell line [4]; dose 45.8 uM (10 ug/mL)): 5.1%
 |  | 31.5 | 31.5 | CSSCOC(C)=O [I, 2,3-dithiabutyl acetate] |  | decreased |  | 76.9 | 32.8 | % pre-G1 (Fixed PI) (AML-3 leukemic cell line [4]; dose 232.8 uM (5 ug/mL)): 23.6%
8.53 |  | 15 | 10.5 | CSSc1ccc([N+](=O)[O-])cc1 [M, methyl p-nitrophenyl disulphide] | 17.4 |  |  | 13.8 | 22.6 | % pre-G1 (Fixed PI) (AML-3 leukemic cell line [4]; dose 20 uM): 34%; % pre-G1 (Fixed PI) (AML-3 leukemic cell line [4]; dose 40 uM): 56%

More lines, now with the values behind:

SMILES | IC50 (AML-3 leukemic cell line [1]; AML-3, 48 h, read-out: MTT50) [µM] | IC50 (KK leukemic cell line; KK) [µM] | IC50 (AML-3 leukemic cell line [1]; [5]) [µM] | IC50 (KK leukemic cell line; Homo sapiens, KK) [µM] | IC50 ([2]; WI38 (normal), 48 h) [µM] | Viability of non-transformed human WI38 fibroblasts following exposure [2] | IC50 ([3]; Normal bone marrow) [µM] | IC50 [2, 6] [µM] | IC50 ([3]; T-cell, Normal bone marrow) [µM] | further results
CSSCS(=O)(=O)c1ccc(C)cc1 [Compound C, α-p-toluenesulfonyl dimethyl disulphide] | 16.9 | 31.4 |  |  | 89 | decreased | 20.9 |  |  | % G2/M (Fixed PI) (AML-3 leukemic cell line [4]; dose 20.2 uM (10 ug/mL)): 11.1%; % pre-G1 (Fixed PI) (AML-3 leukemic cell line [4]; dose 20.2 uM (10 ug/mL)): 10.7%
CSCSSC [Compound N, 2,3,5-trithiahexane] |  |  |  |  |  |  |  |  |  | IC50 (AML-3 leukemic cell line [1]; Homo sapiens, AML3, 48 h, read-out: MTT50, AML-3): 51.1 µM; IC50 (AML-3 leukemic cell line [1]; read-out: MTT50, AML-3, 48 h): 73.4 µM; IC50 (KK leukemic cell line; Homo sapiens): 65.2 µM; IC50 ([2]; Homo sapiens, WI-38, 48 h): > 100 µM; IC50 ([3]; T-cell): > 100 µM; % G2 increase (Fixed PI) (AML-3 leukemic cell line [4]; dose 50 uM): +17%; % pre-G1 (Fixed PI) (AML-3 leukemic cell line [4]; dose 50 uM): 17%; % G2 increase (Fixed PI) (AML-3 leukemic cell line [4]; dose 150 uM): +14%; % pre-G1 (Fixed PI) (AML-3 leukemic cell line [4]; dose 150 uM): 35%
CSSCC(=O)c1ccccc1 [Compound P, phenacyl methyl disulphide] |  |  | 51.1 | 65.2 |  |  |  | > 100 | > 100 | % pre-G1 (Fixed PI) (AML-3 leukemic cell line [4]; dose 50 uM): 7%; % pre-G1 (Fixed PI) (AML-3 leukemic cell line [4]; dose 150 uM): 66%
CS(=O)(=O)CSCS(C)(=O)=O [G, 2,4,6-trithiaheptane 2,2,6,6-tetraoxide] |  |  | 114 | 114 |  | not affected |  | 114 | 114 | % G2/M (Fixed PI) (AML-3 leukemic cell line [4]; dose 45.8 uM (10 ug/mL)): 13.5%; % pre-G1 (Fixed PI) (AML-3 leukemic cell line [4]; dose 45.8 uM (10 ug/mL)): 0.3%
COC(=O)CSSC [H, methyl 3,4-dithiopentanoate] | 93.4 | 110 |  |  | > 164 | not affected | 366 |  |  | % pre-G1 (Fixed PI) (AML-3 leukemic cell line [4]; dose 65.7 uM (10 ug/mL)): 3.6%
